Converted amounts (≈) assume the structure as drawn. Read-outs that look alike come from different tables or passages of the source.
Legend:
[1] = tested on: B. subtilis / cytotoxicity EC50; experiment: Selectivity index (SI) using B. subtilis MICs
Procedure: Additionally, the antimicrobial compounds were analyzed for cytotoxicity. […] We utilized the standard MTT assay (Promega CellTiter 96) and GraphPad Prism 7 software to determine EC50 values for each analogue. Briefly, 20,000 HepG2 cells in 200 μl of the ATCC recommended media were seeded in each well of a 96-well plate with a moisture barrier created in the outermost wells. The cells were allowed to attach overnight at 37° C., and then observed under phase contrast microscopy for proper morphological characteristics. If cells appeared healthy and attached, test compounds were added in 7 concentrations from […] (n=3) from freshly prepared DMSO stock plates. […] Once incubations were complete, the spectrophotometric absorbance of the samples was measured at a wavelength of 595 nm. […] For the HepaRG assay, NoSpin HepaRG™ cells (Lonza, cat #NSHPRG) were thawed and plated with 20,000 cells per well. They were allowed to attach for 4 h (optimal DME profile per Lonza's testing) before dosing following the identical protocol as above.

Neisseria gonorrhoeae = experiment: microbe, parasite or virus in culture; format: cell-based
[2] = ATCC49226, read-out: Neisseria gonorrhoeae ATCC 49226 MIC, strain ATCC 49226
[3] = read-out: Neisseria gonorrhoeae WHO 901 MIC, strain WHO 901
[4] = read-out: Neisseria gonorrhoeae WHO 914 MIC, strain WHO 914

Row | Structure (SMILES) | SI (selectivity index) [1] | MIC (Neisseria gonorrhoeae; [2]) | MIC (Neisseria gonorrhoeae; [3]) | MIC (Neisseria gonorrhoeae; [4])
1 | Fc1ccc2[nH]cc(Sc3ccc(Br)cc3)c2c1 [Compound 174E, 3-((4-bromophenyl)thio)-5-fluoro-1H-indole] | 14.2 | – | – | –
2 | CCc1ccccc1Sc1c[nH]c2ccc(C(F)(F)F)cc12 [Compound 177G, 3-((2-ethylphenyl)thio)-5-(trifluoromethyl)-1H-indole] | 18.9 | – | – | –
3 | Brc1ccc2[nH]cc(Oc3ccccc3)c2c1 [5 bromo-3-phenoxy-1H-indole] | – | 8 µg/mL (≈ 27.8 µM) | 4 µg/mL (≈ 13.9 µM) | 8 µg/mL (≈ 27.8 µM)
4 | Cc1ccccc1Oc1c[nH]c2ccc(F)cc12 | – | 8 µg/mL (≈ 33.2 µM) | 4 µg/mL (≈ 16.6 µM) | 8 µg/mL (≈ 33.2 µM)
5 | CC(c1ccccc1)c1c[nH]c2ccc(F)cc12 (stereo not drawn) | – | 8 µg/mL (≈ 33.4 µM) | 4 µg/mL (≈ 16.7 µM) | 8 µg/mL (≈ 33.4 µM)
6 | Clc1ccc2[nH]cc(Sc3ccc(Br)cc3)c2c1 [Compound 174C, 3-((4-bromophenyl)thio)-5-chloro-1H-indole] | 16.3 | – | – | –
7 | Nc1ccccc1Sc1c[nH]c2ccc(C(F)(F)F)cc12 [Compound 177C, 2-((5-(trifluoromethyl)-1H-indol-3-yl)thio)aniline] | 123.6 | – | – | –
8 | Clc1ccc(Sc2c[nH]c3ccc(Br)cc23)cc1 [Compound 174J, 5-bromo-3-((4-chlorophenyl)thio)-1H-indole] | 16.2 | – | – | –
9 | Brc1ccc(Oc2c[nH]c3ccccc23)cc1 [3-(4-bromophenoxy)-1H-indole] | – | > 8 µg/mL | 4 µg/mL (≈ 13.9 µM) | > 8 µg/mL
10 | COc1ccc2[nH]cc(Sc3ccc(Br)cc3)c2c1 [Compound 172E, 3-((4-bromophenyl)thio)-5-methoxy-1H-indole] | 14.9 | – | – | –

Source: US20250382269A1 (CFD Research Corporation, priority 2019, published 2025)
